Tests used:
Assay type in all cases: in vivo
Chenopodium [1] = experiment: Post-emergence test/greenhouse; conditions: Table C, after three weeks
Procedure: (§1) To produce a suitable preparation of active compound, 1 part by weight of active compound is mixed with the stated amount of solvent, the stated amount of emulsifier is added and the concentrate is diluted with water to the desired concentration.
(§2) Test plants which have a height of 5-15 cm are sprayed with the preparation of active compound in such a way as to apply the particular amounts of active compound desired per unit area. After three weeks, the degree of damage to the plants is rated in % damage in comparison to the development of the untreated control.
(§3) 0%=no action (like intreated control)

Solanum [2] = experiment: Post-emergence test/greenhouse; conditions: Table C, after three weeks
Procedure: as §1, §2, §3

Maize [3] = experiment: Post-emergence test/greenhouse; conditions: Table C, after three weeks
Procedure: as §1, §2, §3

Abuthilon [4] = experiment: Post-emergence test/greenhouse; conditions: Table C, after three weeks
Procedure: as §1, §2, §3

Veronica = experiment: Post-emergence test/greenhouse; conditions: Table C, after three weeks
Procedure: as §1, §2, §3

Amaranthus [5] = experiment: Post-emergence test/greenhouse; conditions: Table C, after three weeks
Procedure: as §1, §2, §3

Wheat [6] = experiment: Post-emergence test/greenhouse; conditions: Table C, after three weeks
Procedure: as §1, §2, §3

Chenopodium [7] = experiment: Pre-emergence test/greenhouse; conditions: after three weeks
Procedure: as §1
(§4) Seeds of the test plants are sown in normal soil and, after 24 hours, watered with the preparation of active compound. It is expedient to keep constant the amount of water per unit area. The concentration of the active compound in the preparation is of no importance, only the amount of active compound applied per unit area being decisive. After three weeks, the degree of damage to the plants is rated in % damage in comparison to the development of the untreated control. The figures denote:
(§5) 0%=no action (like untreated control)

Solanum [8] = experiment: Pre-emergence test/greenhouse; conditions: after three weeks
Procedure: as §1, §4, §5

Portulaca = experiment: Pre-emergence test/greenhouse; conditions: after three weeks
Procedure: as §1, §4, §5

Maize [9] = experiment: Pre-emergence test/greenhouse; conditions: after three weeks
Procedure: as §1, §4, §5

Abuthilon [10] = experiment: Pre-emergence test/greenhouse; conditions: Table B, after three weeks
Procedure: as §1, §4, §5

Amaranthus [11] = experiment: Pre-emergence test/greenhouse; conditions: after three weeks
Procedure: as §1, §4, §5

Wheat [12] = experiment: Pre-emergence test/greenhouse; conditions: Table B, after three weeks
Procedure: as §1, §4, §5

Matricaria = experiment: Pre-emergence test/greenhouse; conditions: after three weeks
Procedure: as §1, §4, §5

Barley = experiment: Pre-emergence test/greenhouse; conditions: Table A, 125 g/ha, after three weeks
Procedure: as §1, §4, §5

CCS(=O)(=O)Nc1cc(N2C(=O)C(C)=C(C)C2=O)c(F)cc1C(N)=S [Example 22]
degree of damage, Chenopodium (Chenopodium [1]; 30 g/ha): 40%
degree of damage, Solanum (Solanum [2]; 30 g/ha): 100%
degree of damage, Maize (Maize [3]; 30 g/ha): 0%
degree of damage, Abuthilon (Abuthilon [4]; 30 g/ha): 100%
degree of damage, Veronica (Veronica; 30 g/ha): 20%
degree of damage, Amaranthus (Amaranthus [5]; 30 g/ha): 100%
degree of damage, Wheat (Wheat [6]; 30 g/ha): 15%
degree of damage, Chenopodium (Chenopodium [7]; Table B, 250 g/ha): 100%
degree of damage, Solanum (Solanum [8]; Table B, 250 g/ha): 100%
degree of damage, Portulaca (Portulaca; Table B, 250 g/ha): 95%
degree of damage, Maize (Maize [9]; Table B, 250 g/ha): 20%
degree of damage, Abuthilon (Abuthilon [10]; 250 g/ha): 100%
degree of damage, Amaranthus (Amaranthus [11]; Table B, 250 g/ha): 100%
degree of damage, Wheat (Wheat [12]; 250 g/ha): 0%
degree of damage, Matricaria (Matricaria; Table B, 250 g/ha): 100%

CCS(=O)(=O)Nc1cc(-n2nc(C(F)F)n(C)c2=O)c(F)cc1C(N)=S [Example 9]
degree of damage, Chenopodium (Chenopodium [1]; 60 g/ha): 100%
degree of damage, Solanum (Solanum [2]; 60 g/ha): 100%
degree of damage, Maize (Maize [3]; 60 g/ha): 30%
degree of damage, Abuthilon (Abuthilon [4]; 60 g/ha): 100%
degree of damage, Veronica (Veronica; 60 g/ha): 100%
degree of damage, Amaranthus (Amaranthus [5]; 60 g/ha): 100%
degree of damage, Wheat (Wheat [6]; 60 g/ha): 10%
degree of damage, Chenopodium (Chenopodium [7]; Table B, 60 g/ha): 100%
degree of damage, Solanum (Solanum [8]; Table B, 60 g/ha): 100%
degree of damage, Portulaca (Portulaca; Table B, 60 g/ha): 90%
degree of damage, Maize (Maize [9]; Table B, 60 g/ha): 0%
degree of damage, Abuthilon (Abuthilon [10]; 60 g/ha): 100%
degree of damage, Amaranthus (Amaranthus [11]; Table B, 60 g/ha): 100%
degree of damage, Wheat (Wheat [12]; 60 g/ha): 0%
degree of damage, Matricaria (Matricaria; Table B, 60 g/ha): 95%

CCS(=O)(=O)Nc1cc(-n2c(=O)cc(C(F)(F)F)n(C)c2=S)c(F)cc1C(N)=S [Example 21]
degree of damage, Chenopodium (Chenopodium [1]; 4 g/ha): 70%
degree of damage, Solanum (Solanum [2]; 4 g/ha): 100%
degree of damage, Maize (Maize [3]; 4 g/ha): 60%
degree of damage, Abuthilon (Abuthilon [4]; 4 g/ha): 90%
degree of damage, Veronica (Veronica; 4 g/ha): 100%
degree of damage, Amaranthus (Amaranthus [5]; 4 g/ha): 100%
degree of damage, Wheat (Wheat [6]; 4 g/ha): 5%
degree of damage, Chenopodium (Chenopodium [7]; Table B, 60 g/ha): 100%
degree of damage, Solanum (Solanum [8]; Table B, 60 g/ha): 100%
degree of damage, Portulaca (Portulaca; Table B, 60 g/ha): 100%
degree of damage, Maize (Maize [9]; Table B, 60 g/ha): 0%
degree of damage, Abuthilon (Abuthilon [10]; 60 g/ha): 100%
degree of damage, Amaranthus (Amaranthus [11]; Table B, 60 g/ha): 100%
degree of damage, Wheat (Wheat [12]; 60 g/ha): 0%
degree of damage, Matricaria (Matricaria; Table B, 60 g/ha): 100%

CCN(CC)CC.CCS(=O)(=O)Nc1cc(-n2nc(C)n(NC)c2=O)c(F)cc1C(N)=S [Example 7]
degree of damage, Chenopodium (Chenopodium [1]; 60 g/ha): 95%
degree of damage, Solanum (Solanum [2]; 60 g/ha): 100%
degree of damage, Maize (Maize [3]; 60 g/ha): 50%
degree of damage, Abuthilon (Abuthilon [4]; 60 g/ha): 100%
degree of damage, Veronica (Veronica; 60 g/ha): 95%
degree of damage, Amaranthus (Amaranthus [5]; 60 g/ha): 100%
degree of damage, Wheat (Wheat [6]; 60 g/ha): 10%
degree of damage, Chenopodium (Chenopodium [7]; Table A, 125 g/ha): 100%
degree of damage, Chenopodium (Chenopodium [7]; Table B, 125 g/ha): 100%
degree of damage, Barley (Barley): 30%
degree of damage, Solanum (Solanum [8]; Table A, 125 g/ha): 95%
degree of damage, Solanum (Solanum [8]; Table B, 125 g/ha): 95%
degree of damage, Portulaca (Portulaca; Table A, 125 g/ha): 100%
degree of damage, Portulaca (Portulaca; Table B, 125 g/ha): 100%
degree of damage, Maize (Maize [9]; Table A, 125 g/ha): 0%
degree of damage, Maize (Maize [9]; Table B, 125 g/ha): 0%
degree of damage, Abuthilon (Abuthilon [10]; 125 g/ha): 95%
degree of damage, Amaranthus (Amaranthus [11]; Table A, 125 g/ha): 100%
degree of damage, Amaranthus (Amaranthus [11]; Table B, 125 g/ha): 100%
degree of damage, Wheat (Wheat [12]; 125 g/ha): 50%
degree of damage, Matricaria (Matricaria; Table A, 125 g/ha): 95%
degree of damage, Matricaria (Matricaria; Table B, 125 g/ha): 95%

Cn1c(C(F)(F)F)cc(=O)n(-c2cc(NS(C)(=O)=O)c(C(N)=S)cc2F)c1=S [Example 26]
degree of damage, Chenopodium (Chenopodium [1]; 15 g/ha): 50%
degree of damage, Solanum (Solanum [2]; 15 g/ha): 50%
degree of damage, Maize (Maize [3]; 15 g/ha): 30%
degree of damage, Abuthilon (Abuthilon [4]; 15 g/ha): 50%
degree of damage, Veronica (Veronica; 15 g/ha): 100%
degree of damage, Amaranthus (Amaranthus [5]; 15 g/ha): 90%
degree of damage, Wheat (Wheat [6]; 15 g/ha): 0%
degree of damage, Chenopodium (Chenopodium [7]; Table B, 60 g/ha): 100%
degree of damage, Solanum (Solanum [8]; Table B, 60 g/ha): 90%
degree of damage, Portulaca (Portulaca; Table B, 60 g/ha): 100%
degree of damage, Maize (Maize [9]; Table B, 60 g/ha): 0%
degree of damage, Abuthilon (Abuthilon [10]; 60 g/ha): 100%
degree of damage, Amaranthus (Amaranthus [11]; Table B, 60 g/ha): 80%
degree of damage, Wheat (Wheat [12]; 60 g/ha): 0%
degree of damage, Matricaria (Matricaria; Table B, 60 g/ha): 100%

CCS(=O)(=O)Nc1cc(-n2nc3n(c2=O)CCCC3)c(F)cc1C(N)=S [Example 1, 2-(2-fluoro-5-ethylsulphonylamino-4-thiocarbamoyl-phenyl)-5,6,7,8-tetrahydro-1,2,4-triazolo[4,3-a]pyridin-3(2H)-one]
degree of damage, Chenopodium (Chenopodium [1]; 15 g/ha): 95%
degree of damage, Solanum (Solanum [2]; 15 g/ha): 100%
degree of damage, Maize (Maize [3]; 15 g/ha): 50%
degree of damage, Abuthilon (Abuthilon [4]; 15 g/ha): 100%
degree of damage, Veronica (Veronica; 15 g/ha): 100%
degree of damage, Amaranthus (Amaranthus [5]; 15 g/ha): 95%
degree of damage, Wheat (Wheat [6]; 15 g/ha): 10%
degree of damage, Chenopodium (Chenopodium [7]; Table B, 125 g/ha): 100%
degree of damage, Solanum (Solanum [8]; Table B, 125 g/ha): 100%
degree of damage, Portulaca (Portulaca; Table B, 125 g/ha): 100%
degree of damage, Maize (Maize [9]; Table B, 125 g/ha): 0%
degree of damage, Abuthilon (Abuthilon [10]; 125 g/ha): 100%
degree of damage, Amaranthus (Amaranthus [11]; Table B, 125 g/ha): 100%
degree of damage, Wheat (Wheat [12]; 125 g/ha): 0%
degree of damage, Matricaria (Matricaria; Table B, 125 g/ha): 95%

Source: patent publication US6451736B1, “Substituted aromatic thiocarboxylic acid amides and their use as herbicides” (Bayer Aktiengesellschaft, priority 1994, dated 2002)
